These results are taken from the supplement of paper PMC11061612.

Experiment [1] has as its system SK-MEL-2 (Melanoma). Description: combination Emax (second highest fraction inhibited in the dose matrix, 72 h); higher = more inhibition; extreme values may be limits of the assay. The method, boiled down: (§1)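 Bliss excess equals the observed combination effect minus the expected value EA + EB − EA·EB, where EA and EB are the effects of each agent alone. Combination Emax is the second-highest inhibition within the matrix. Inhibition was scaled from CellTiter-Glo 2.0 luminescence, with 0 set by vehicle wells and 1 by blank wells, after 72 hours of two-drug dosing of cells plated in 1536-well plates.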

The test system of experiment [2] is NB12 (Neuroblastoma). The experiment is described as above. In outline: as §1
Experiment [3] relates to REH (B-Lymphoblastic Leukemia). Description: Bliss excess, mean over the matrix (fraction); higher = more synergy. In outline: as §1
The subject of experiment [4] is PC-3_[JPC-3] (Lung Adenocarcinoma). The experiment is described as above. In outline:
as §1

The subject of experiment [5] is SU-DHL-10 (B-Cell Non-Hodgkin's Lymphoma). Described as above. In outline:
as §1

Experiment [6] concerns SK-MEL-2 (Melanoma). The experiment is described as above. In outline: as §1
Experiment [7] has as its system PANC-03-27 (Pancreatic Carcinoma). The description is as above. In outline: as §1
The subject of experiment [8] is NB12 (Neuroblastoma). Described as above. The method, boiled down: as §1
Experiment [9] relates to NCI-H2342 (Lung Adenocarcinoma). The experiment is described as above. The method, boiled down:
as §1

Experiment [10] has as its system 23132-87 (Gastric Carcinoma). The experiment is described as above. The method, boiled down: as §1

On to `CC(=O)c1c(C)c2cnc(Nc3ccc(N4CCNCC4)cn3)nc2n(C2CCCC2)c1=O` [Palbociclib] + Cn1cnc2c(F)c(Nc3ccc(Br)cc3Cl)c(C(=O)NOCCO)cc21 [Selumetinib] (first compound max 10 µM, 7x7, partner max 10 µM), for which the “combination Emax” value in the experiment on SK-MEL-2 (Melanoma) [1] was 0.805; in the experiment on NB12 (Neuroblastoma) [2] it was 0.276. Moreover, the Bliss excess in [3] was -0.0229; in experiment [4], -0.0288; in [5], 0.0392; in the experiment with SK-MEL-2 (Melanoma) [6], 0.0374; in [7], -0.0015; in the experiment on NB12 (Neuroblastoma) [8] it was 0.0177. The Bliss excess in experiment [9] was -0.0441; in experiment [10], -0.0683.
With `C[C@@H](c1ccc2nccn2c1)n1nnc2ncc(-c3cnn(C)c3)nc21` [Savolitinib] + CC1(C)CCC(CN2CCN(c3ccc(C(=O)NS(=O)(=O)c4ccc(NCC5CCOCC5)c([N+](=O)[O-])c4)c(Oc4cnc5[nH]ccc5c4)c3)CC2)=C(c2ccc(Cl)cc2)C1 [Venetoclax] (first compound max 1 µM, 7x7, partner max 1 µM), the entries for the “combination Emax” value in the experiment with SK-MEL-2 (Melanoma) [1] and in the experiment with NB12 (Neuroblastoma) [2] were 0.14 and 0.641, respectively. Besides, the Bliss excess in experiment [3] was -0.0192; in [4], -0.0457; in [5], -0.0048; in the experiment with SK-MEL-2 (Melanoma) [6] it was -0.0295; in [7], -0.0176; in the experiment on NB12 (Neuroblastoma) [8], -0.0062. Also, the figures for the Bliss excess in experiment [9] and in [10] were -0.0631 and -0.0578, respectively.
With `C[C@@H](c1ccc2nccn2c1)n1nnc2ncc(-c3cnn(C)c3)nc21` [Savolitinib] + Cc1c2c(nn1C)CSCc1cc(n(C)n1)CSc1cc(c3ccccc3c1)OCCCc1c(C(=O)O)n(C)c3c-2c(Cl)ccc13 [AZD5991] (first compound max 1 µM, 7x7, partner max 1 µM), the “combination Emax” value turned out to be 0.901 in the experiment on SK-MEL-2 (Melanoma) [1] and 0.219 with NB12 (Neuroblastoma) [2]. In addition, the Bliss excess in experiment [3] is -0.0369; in experiment [4] it was -0.0216; in [5] it was -0.0034; in the experiment on SK-MEL-2 (Melanoma) [6] it was -0.023; in experiment [7] it was -0.0541; in the experiment with NB12 (Neuroblastoma) [8], -0.0075. Moreover, the figures for the Bliss excess in experiment [9] and in experiment [10] were 0.0288 and 0.0014, respectively.
Consider `Cn1cnc2c(F)c(Nc3ccc(Br)cc3Cl)c(C(=O)NOCCO)cc21` [Selumetinib] + C=CCn1c(=O)c2cnc(Nc3ccc(N4CCN(C)CC4)cc3)nc2n1-c1cccc(C(C)(C)O)n1 [AZD1775] (first compound max 10 µM, partner max 1 µM), for which the “combination Emax” value in the experiment with SK-MEL-2 (Melanoma) [1] came out at 0.831; with NB12 (Neuroblastoma) [2] it was 0.674. The Bliss excess was -0.0424 in [3]; -0.0332 in [4]; 0.0359 in experiment [5]; 0.0533 in the experiment with SK-MEL-2 (Melanoma) [6]; -0.0164 in [7]; -0.0517 with NB12 (Neuroblastoma) [8]. The Bliss excess was -0.0366 in experiment [9] and -0.0804 in [10].
As for `Cn1cnc2c(F)c(Nc3ccc(Br)cc3Cl)c(C(=O)NOCCO)cc21` [Selumetinib] + CC(C)n1c(=O)n(C)c2cnc3cc(F)c(-c4ccc(OCCCN5CCCCC5)nc4)cc3c21 [AZD1390] (first compound max 10 µM, 7x7, partner max 0.3 µM), the results for the “combination Emax” value in the experiment with SK-MEL-2 (Melanoma) [1] and in the experiment with NB12 (Neuroblastoma) [2] were 0.739 and 0.106, respectively. Further, the Bliss excess in [3] was -0.0323; in experiment [4], -0.0445; in experiment [5], -0.0183; in the experiment with SK-MEL-2 (Melanoma) [6], -0.0602; in experiment [7], 0.01; with NB12 (Neuroblastoma) [8], -0.0215. Besides, the Bliss excess in [9] is -0.0489; in experiment [10] it was -0.0449.
On to `Cn1cnc2c(F)c(Nc3ccc(Br)cc3Cl)c(C(=O)NOCCO)cc21` [Selumetinib] + CCN(CCO)CCCOc1ccc2c(Nc3cc(CC(=O)Nc4cccc(F)c4)[nH]n3)ncnc2c1 [AZD2811] (first compound max 10 µM, 7x7, partner max 1 µM), for which the “combination Emax” value with SK-MEL-2 (Melanoma) [1] was 0.722; in the experiment with NB12 (Neuroblastoma) [2], 0.607. Moreover, the Bliss excess is -0.0464 in [3]; -0.0748 in [4]; -0.0915 in experiment [5]; -0.0538 in the experiment with SK-MEL-2 (Melanoma) [6]; 0.0374 in experiment [7]; -0.0881 in the experiment with NB12 (Neuroblastoma) [8]. Besides, the Bliss excess was -0.0569 in [9] and -0.0264 in experiment [10].
For the compound `Cn1cnc2c(F)c(Nc3ccc(Br)cc3Cl)c(C(=O)NOCCO)cc21` [Selumetinib] + C[C@@H]1COCCN1C2=NC(=NC(=C2)C3(CC3)[S@](=N)(=O)C)C4=C5C=CNC5=NC=C4 [AZD6738] (first compound max 10 µM, 7x7, partner max 10 µM), the “combination Emax” value with SK-MEL-2 (Melanoma) [1] is 0.806; with NB12 (Neuroblastoma) [2], 0.39. In addition, the Bliss excess is -0.0612 in [3]; -0.0671 in experiment [4]; 0.0181 in experiment [5]; -0.0161 in the experiment on SK-MEL-2 (Melanoma) [6]; -0.0117 in experiment [7]; -0.0545 with NB12 (Neuroblastoma) [8]. In addition, the Bliss excess was -0.0577 in experiment [9] and -0.0627 in experiment [10].
